The conditions of the series: Liquid; for Critical pressure: Direct measurement; for Critical density: Rectilinear diameter; for Critical temperature: Visual observation in an unstirred cell.

Numbers after ± are expanded uncertainties.

Take `CC(C)C` [2-methylpropane]: the Critical pressure is on record as 3620 ± 60 kPa, the Critical density worked out at 220 ± 6 kg/m3 and the Critical temperature was determined as 409.9 ± 0.6 K.

As to `O=C=O` [carbon dioxide], the Critical pressure turned out to be 7380 ± 60 kPa, the Critical density worked out at 473 ± 8 kg/m3 and the Critical temperature turned out to be 304.8 ± 0.6 K.

Turning to `C=CCC` [1-butene], the Critical pressure was 4000 ± 60 kPa, the Critical density stood at 233 ± 7 kg/m3 and the Critical temperature came to 421.2 ± 0.6 K.

Take `CC(C)CC(C)(C)C` [2,2,4-trimethylpentane]: the Critical pressure is 2570 ± 60 kPa, the Critical density is reported as 251 ± 7 kg/m3 and the Critical temperature stood at 544.1 ± 0.6 K.

These data come from the NIST ThermoML archive (doi:10.1021/je700132w).
